Measurements from patent publication US11566007B2, “Ras inhibitors” (Revolution Medicines, Inc., priority 2019, dated 2023).

Tests used:
Type in all cases: biochemical
[1] = biological target: K-Ras G12C (Homo sapiens (Human), UniProt P01116+P62937, G12C); experiment: Ras-Raf (BRAF RBD) disruption / FRET / MOA assay, KRAS G12C; conditions: KRAS G12C; Ras-Raf disruption/FRET/MOA assay; read-out: IC50* KRAS G12C FRET data
How it was run: (§1)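 Compounds, top final concentration 30 μM in 10-point 3-fold series, incubated 3 hours at 25° C with nucleotide-loaded Ras, cyclophilin A and BRAF RBD.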

[2] = biological target: K-Ras G13C (Homo sapiens (Human), UniProt P01116+P62937, G13C); experiment: Ras-Raf (BRAF RBD) disruption / FRET / MOA assay, KRAS G13C; conditions: KRAS G13C; Ras-Raf disruption/FRET/MOA assay; read-out: IC50* KRAS G13C FRET data
Chain of K-Ras G13C (P01116-2 other isoform, or with tags, fused parts or gaps G13C): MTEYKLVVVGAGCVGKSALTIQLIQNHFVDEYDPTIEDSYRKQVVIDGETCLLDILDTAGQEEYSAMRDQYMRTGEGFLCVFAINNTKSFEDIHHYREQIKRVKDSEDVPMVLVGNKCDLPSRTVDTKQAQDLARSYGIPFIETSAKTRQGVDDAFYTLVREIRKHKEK
Chain of K-Ras G13C (P62937 whole entry): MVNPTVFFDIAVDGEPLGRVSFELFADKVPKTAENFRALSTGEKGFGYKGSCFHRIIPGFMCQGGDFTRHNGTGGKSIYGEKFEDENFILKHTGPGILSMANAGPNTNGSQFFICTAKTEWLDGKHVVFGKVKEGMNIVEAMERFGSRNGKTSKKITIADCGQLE
How it was run: as §1

[3] = biological target: KRAS G12D (Homo sapiens (Human), UniProt P01116+P62937, G12D); experiment: Ras-Raf (BRAF RBD) disruption / FRET / MOA assay, KRAS G12D; conditions: Ras-Raf disruption/FRET/MOA assay; class symbols; read-out: KRAS G12D FRET data IC50
Chain of KRAS G12D (P01116-2 other isoform, or with tags, fused parts or gaps G12D): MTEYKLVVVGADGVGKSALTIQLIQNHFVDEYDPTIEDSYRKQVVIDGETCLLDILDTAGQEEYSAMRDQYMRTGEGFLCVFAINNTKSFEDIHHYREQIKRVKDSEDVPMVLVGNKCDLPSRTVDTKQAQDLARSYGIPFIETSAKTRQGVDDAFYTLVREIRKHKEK
Chain of KRAS G12D (P62937 whole entry): as the sequence (P62937 whole entry) above
How it was run: as §1

[4] = biological target: KRAS G12V (Homo sapiens (Human), UniProt P01116+P62937, G12V); experiment: Ras-Raf (BRAF RBD) disruption / FRET / MOA assay, KRAS G12V; conditions: read-out: IC50* KRAS G12V FRET data
Chain of KRAS G12V (P01116-2 other isoform, or with tags, fused parts or gaps G12V): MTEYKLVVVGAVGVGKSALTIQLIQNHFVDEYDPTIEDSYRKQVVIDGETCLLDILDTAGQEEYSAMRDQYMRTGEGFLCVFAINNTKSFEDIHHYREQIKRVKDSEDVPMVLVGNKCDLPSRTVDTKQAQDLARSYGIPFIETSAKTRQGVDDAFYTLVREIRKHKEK
Chain of KRAS G12V (P62937 whole entry): as the sequence (P62937 whole entry) above
How it was run: as §1

[5] = biological target: KRAS G13D (Homo sapiens (Human), UniProt P01116+P62937, G13D); experiment: Ras-Raf (BRAF RBD) disruption / FRET / MOA assay, KRAS G13D; conditions: read-out: IC50* KRAS G13D FRET data
Chain of KRAS G13D (P01116-2 other isoform, or with tags, fused parts or gaps G13D): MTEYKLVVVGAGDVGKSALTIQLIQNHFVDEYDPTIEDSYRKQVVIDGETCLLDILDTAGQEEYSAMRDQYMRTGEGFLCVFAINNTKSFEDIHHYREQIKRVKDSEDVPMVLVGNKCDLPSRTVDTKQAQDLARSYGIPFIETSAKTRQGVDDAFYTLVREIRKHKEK
Chain of KRAS G13D (P62937 whole entry): as the sequence (P62937 whole entry) above
How it was run: as §1

[6] = biological target: KRAS Q61H (Homo sapiens (Human), UniProt P01116+P62937, Q61H); experiment: Ras-Raf (BRAF RBD) disruption / FRET / MOA assay, KRAS Q61H; conditions: Ras-Raf disruption/FRET/MOA assay; class symbols; read-out: KRAS Q61H FRET data IC50
Chain of KRAS Q61H (P01116-2 other isoform, or with tags, fused parts or gaps Q61H): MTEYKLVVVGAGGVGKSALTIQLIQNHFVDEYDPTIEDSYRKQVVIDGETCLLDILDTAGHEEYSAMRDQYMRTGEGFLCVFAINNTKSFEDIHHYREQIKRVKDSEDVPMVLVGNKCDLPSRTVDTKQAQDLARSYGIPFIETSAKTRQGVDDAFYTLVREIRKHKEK
Chain of KRAS Q61H (P62937 whole entry): as the sequence (P62937 whole entry) above
How it was run: (§2)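 TR-FRET disruption of nucleotide-loaded Ras binding to BRAF RBD via compound-driven ternary complex with cyclophilin A. Compound as 10-point 3-fold series from 30 μM final, 3 h at 25° C, then anti-His Eu-W1024 (10 nM) and anti-GST allophycocyanin (50 nM) for 1.5 h. IC50 from decreased FRET ratio versus DMSO.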

[7] = biological target: NRAS G12C (Homo sapiens (Human), UniProt P01111+P62937, G12C); experiment: Ras-Raf (BRAF RBD) disruption / FRET / MOA assay, NRAS G12C; conditions: read-out: IC50* NRAS G12C FRET data
Chain of NRAS G12C (P01111 whole entry G12C): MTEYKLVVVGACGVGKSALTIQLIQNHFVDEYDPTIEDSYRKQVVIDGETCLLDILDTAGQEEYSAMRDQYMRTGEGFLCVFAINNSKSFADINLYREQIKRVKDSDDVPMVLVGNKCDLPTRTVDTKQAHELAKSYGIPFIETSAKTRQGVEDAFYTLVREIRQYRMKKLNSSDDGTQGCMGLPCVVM
Chain of NRAS G12C (P62937 whole entry): as the sequence (P62937 whole entry) above
How it was run: as §1

[8] = biological target: NRAS Q61K (Homo sapiens (Human), UniProt P01111+P62937, Q61K); experiment: Ras-Raf (BRAF RBD) disruption / FRET / MOA assay, NRAS Q61K; conditions: NRAS Q61K; Ras-Raf disruption/FRET/MOA assay; read-out: IC50* NRAS Q61K FRET data
Chain of NRAS Q61K (P01111 whole entry Q61K): as the sequence (P01111 whole entry G12C) above, with C12G, Q61K counted along it
Chain of NRAS Q61K (P62937 whole entry): as the sequence (P62937 whole entry) above
How it was run: as §2

[9] = biological target: NRAS WT (Homo sapiens (Human), UniProt P01111+P62937); experiment: Ras-Raf (BRAF RBD) disruption / FRET / MOA assay, NRAS WT; conditions: read-out: IC50* NRAS WT FRET data
Chain of NRAS WT (P01111 whole entry): as the sequence (P01111 whole entry G12C) above, with C12G counted along it
Chain of NRAS WT (P62937 whole entry): as the sequence (P62937 whole entry) above
How it was run: as §2

Chain of K-Ras G12C (P01116-2 other isoform, or with tags, fused parts or gaps G12C): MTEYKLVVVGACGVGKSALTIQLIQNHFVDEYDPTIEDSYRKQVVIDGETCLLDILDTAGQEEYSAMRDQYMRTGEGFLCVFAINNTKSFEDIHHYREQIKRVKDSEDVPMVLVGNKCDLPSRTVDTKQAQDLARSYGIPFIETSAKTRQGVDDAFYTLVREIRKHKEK
Chain of K-Ras G12C (P62937 whole entry): as the sequence (P62937 whole entry) above

| SMILES | IC50 [1] [µM] | IC50 [2] [µM] | IC50 [3] [µM] | IC50 [4] [µM] | IC50 [5] [µM] | IC50 [6] [µM] | IC50 [7] [µM] | IC50 [8] [µM] | IC50 [9] [µM] |
| --- | --- | --- | --- | --- | --- | --- | --- | --- | --- |
| C=CC(=O)N1CC[C@H](C(=O)N(C)[C@H](C(=O)N[C@H]2Cc3cc(O)cc(c3)-c3ccc4c(c3)c(c(-c3cn(C)cn3)n4CC)CC(C)(C)COC(=O)[C@@H]3CCCN(N3)C2=O)C(C)C)C1 [Example A113] | 0.1 to 1 | > 10 | > 10 | 1 to 10 | > 10 | 1 to 10 | 0.1 to 1 | > 10 | > 10 |
| CCn1c(-c2cccnc2[C@H](C)OC)c2c3cc(ccc31)-c1csc(n1)C[C@H](NC(=O)[C@H](C(C)C)N(C)C(=O)N1CCC3(CC1)CN(C(=O)/C=C/C(F)F)C3)C(=O)N1CCC[C@H](N1)C(=O)OCC(C)(C)C2 (atropisomer, axis not shown) [Example A683] | 0.01 to 0.1 | < 0.01 | 0.1 to 1 | 0.1 to 1 | 0.1 to 1 | 0.01 to 0.1 | 0.01 to 0.1 | 0.01 to 0.1 | 0.1 to 1 |
| C=CC(=O)N1CCC2(CC1)CCN2C(=O)N(C)[C@H](C(=O)N[C@H]1Cc2nc(cs2)-c2ccc3c(c2)c(c(-c2cccnc2[C@H](C)OC)n3CC)CC(C)(C)COC(=O)[C@@H]2CCCN(N2)C1=O)C(C)C (atropisomer, axis not shown) [Example A678] | 0.01 to 0.1 | 0.1 to 1 | 0.1 to 1 | 0.1 to 1 | 0.1 to 1 | 0.01 to 0.1 | 0.01 to 0.1 | 0.01 to 0.1 | 0.1 to 1 |
| C=CC(=O)N1CC(OC[C@H](C(=O)N[C@H]2Cc3cccc(c3)-c3ccc4c(c3)c(c(-c3cccnc3[C@H](C)OC)n4CC(F)(F)F)CC(C)(C)COC(=O)[C@@H]3CCCN(N3)C2=O)C(C)C)C1 (atropisomer, axis not shown) [Example A344] | 0.01 to 0.1 | 0.1 to 1 | > 10 | 1 to 10 | 1 to 10 | 0.1 to 1 | 0.01 to 0.1 | 1 to 10 | 1 to 10 |
| CO[C@@H](C)c1ncccc1-c1c2c3cc(ccc3n1CC(F)(F)F)-c1csc(n1)C[C@H](NC(=O)[C@H](C(C)C)N(C)C(=O)N1CCN(C(=O)/C=C/CN(C)C)C3(CC3)C1)C(=O)N1CCC[C@H](N1)C(=O)OCC(C)(C)C2 (atropisomer, axis not shown) [Example A664] | 0.01 to 0.1 | 0.01 to 0.1 | 0.01 to 0.1 | 0.1 to 1 | 0.01 to 0.1 | 0.01 to 0.1 | 0.01 to 0.1 | 0.01 to 0.1 | 0.01 to 0.1 |
| C=CC(=O)N(C)C1CN(C(=O)N(C)[C@H](C(=O)N[C@H]2Cc3nc(cs3)-c3ccc4c(c3)c(c(-c3cccnc3[C@H](C)OC)n4CC)CC(C)(C)COC(=O)[C@@H]3CCCN(N3)C2=O)C(C)C)C1 (atropisomer, axis not shown) [Example A463] | 0.01 to 0.1 | 0.1 to 1 | 1 to 10 | 0.1 to 1 | 0.1 to 1 | 0.01 to 0.1 | 0.01 to 0.1 | 0.01 to 0.1 | 0.1 to 1 |
| CO[C@@H](C)c1ncccc1-c1c2c3cc(ccc3n1CC(F)(F)F)-c1nc(co1)C[C@H](NC(=O)[C@@H](COC1CN(C(=O)C#CC(C)(C)N(C)C)C1)C(C)C)C(=O)N1CCC[C@H](N1)C(=O)OCC(C)(C)C2 (atropisomer, axis not shown) [Example A674] | 0.01 to 0.1 | 1 to 10 | > 10 | > 10 | > 10 | 1 to 10 | 0.01 to 0.1 | > 10 | > 10 |
| C=CC(=O)N1CCOC2(C1)CN(C(=O)N(C)[C@H](C(=O)N[C@H]1Cc3cccc(c3)-c3ccc4c(c3)c(c(-c3cccnc3[C@H](C)OC)n4CC(F)(F)F)CC(C)(C)COC(=O)[C@@H]3CCCN(N3)C1=O)C(C)C)C2 (atropisomer, axis not shown) [Example A538] | 0.01 to 0.1 | 0.01 to 0.1 | 1 to 10 | 0.1 to 1 | 0.1 to 1 | 0.1 to 1 | 0.01 to 0.1 | 0.1 to 1 | 0.1 to 1 |
